US20260166061A1, “COMPOUND, RACEMATE OF SAID COMPOUND, SALT OF SAID COMPOUND OR SAID RACEMATE, COMPOSITION, ANTI-INFLAMMATORY AGENT, THERAPEUTIC AGENT FOR DEMENTIA, AND THERAPEUTIC AGENT FOR RETT SYNDROME” (INSTITUTE OF RHEOLOGICAL FUNCTION OF FOOD CO., LTD., priority 2021, published 2026)

Columns and labels:
p65 (NFkB) in BV2 cells = assay: LPS-induced nuclear p65 expression in BV2 cells (Western blotting); type: cell-based, mice; details: 5 μg/mL, 16 hours pre-culture, LPS (1 g/mL) 6 hours, 20 μg nuclear protein, n=2, FIG. 1
Method: (§1) Under conditions where KIT-2 or KIT-13 was present (5 μg/mL), or where neither KIT-2 nor KIT-13 was present, BV2 cells, which are microglial cells in mice, were cultured for 16 hours in DMEM medium supplemented with 2% fetal bovine serum (FBS). Thereafter, treatment with LPS ([…]) was carried out for 6 hours. Subsequently, nuclear protein was extracted from the cells, and p65 was detected by the Western blotting method. The antibody used for the detection was an anti-p65 NFkB antibody (Ref no. 51-0500, manufactured by Invitrogen).

IL-1β in BV2 cells = assay: LPS-induced IL-1β protein in BV2 cell culture supernatant (ELISA); type: cell-based, mice; details: 5 μg/mL, 16 hours pre-culture, LPS (1 g/mL) 6 hours, n=4, FIG. 2
Method: as §1
In addition, 20 μL of the cell culture supernatant after the LPS treatment was subjected to detection of the inflammatory cytokine IL-1ß by the ELISA method using a mouse IL-1β ELISA kit (manufactured by R&D Systems; Catalog No. DY401-05).

IL-1β gene in BV2 cells = assay: LPS-induced IL-1β gene expression in BV2 cells (PCR); type: cell-based, mice; details: 5 μg/mL, 16 hours pre-culture, LPS (1 μg/mL) 2 hours, vs. no addition, β-actin internal standard, FIG. 3
Method: Under conditions where sPIs or KIT-13 was present (5 μg/mL), or where neither sPIs nor KIT-13 was present, BV2 cells were cultured for 16 hours in DMEM medium supplemented with 2% fetal bovine serum (FBS). Thereafter, treatment with LPS (1 μg/mL) was carried out for 2 hours. Subsequently, cellular RNA was extracted using the TRIzol (trademark) reagent, and cDNA was prepared from the RNA using a PrimeScript (trademark) 1st strand cDNA Synthesis Kit (manufactured by Takara; 6110). Using TaKaRa Taq (trademark) (manufactured by Takara; R110A), the expression levels of the IL-1β gene and, as an internal standard, the β-actin gene were quantified by polymerase chain reaction (PCR).
The base sequences of the forward primer and the reverse primer for the IL-1ß gene are shown in SEQ ID NOs: 1 and 2, respectively. The base sequences of the forward primer and the reverse primer for the β-actin gene are shown in SEQ ID NOs: 3 and 4, respectively.

MeCP2-deficient mice [1] = assay: Evaluation of lifetime using RTT model mice; type: in vivo; details: male MeCP2-deficient mice, 20 ng/g body weight, drinking water twice a week
Method: For the test, 4-week-old male MeCP2-deficient mice were used. The MeCP2-deficient mice were divided into the following two groups: a KIT-13 administration group (KO-KIT-13, n=14) and a control group (KO, n=28). The body weight of each mouse was measured in advance. For the KIT-13 administration group, KIT-13 was suspended in water by ultrasonication, and administered twice a week by drinking-water administration such that 20 ng/g body weight of KIT-13 was taken. On the other hand, in the control group, only water was given in the same manner.

MeCP2-deficient mice [2] = assay: RTT-like scoring using RTT model mice; type: in vivo; details: male MeCP2-deficient mice, 20 ng/g body weight, drinking water, scored weekly from 5 weeks old, FIG. 5
Method: (§2) RTT-like symptoms in MeCP2-deficient mice to which KIT-13 was administered were evaluated by RTT-like scoring. For the test, 4-week-old male MeCP2-deficient mice were used. The MeCP2-deficient mice were divided into the following two groups: a KIT-13 administration group (KO-KIT-13, n=14) and a control group (KO, n=15). In the KIT-13 administration group, KIT-13 was administered at 20 ng/g body weight by drinking-water administration in the same manner as in Test Example 3. In the control group, only water was given in the same manner.
The RTT-like scoring was carried out once a week from 5 weeks old, for the following items 1 to 6.
Each mouse was observed after gently placing the mouse on a platform. • 0 points: Same as the wild type. • 1 point: Lower mobility compared to the wild type. (The period of freezing after the first placement on the platform is longer, or the period during which the mouse is standing still is longer.) • 2 points: No spontaneous movement after the placement on the platform. The mouse can move in response to mild stimuli or food placed nearby.
• 0 points: Same as the wild type. • 1 point: Due to a severe reduction in the pelvis, the mouse spreads the hindlimbs apart during walking or running, compared to the wild type. Waddling gait.
Staggering gait. • 2 points: More remarkable abnormality. […]

[3] = Evaluation of body weight of MeCP2-deficient mice; type: in vivo; details: male MeCP2-deficient mice, 20 ng/g body weight, drinking water
Method: as §2, with “MeCP2-deficient” for “RTT-like symptoms in MeCP2-deficient”, “subjected to measurement of the body weight every week, and changes in the body weight were evaluated.” for “evaluated by RTT-like scoring.”, “n=21).” for “n=15).”

[4] = system: c57BL6J mice with LPS-induced memory impairment; assay: Water maze test in LPS-induced memory impairment model mice; type: in vivo; details: 10 mg/50 kg/day in drinking water for 30 days plus 7 days LPS (250 mg/kg/day), sixth trial, P<0.01, n=5, FIG. 7
Method: The effect of KIT-13 on LPS-induced memory impairment in mice was studied. Eight-week-old male c57BL6J mice (5 individuals per group; n=5) were allowed to drink KIT-13 for 30 days at a dose of 10 mg/50 kg/day, and then LPS treatment (250 mg/kg/day) was carried out for 7 days while the mice were similarly allowed to drink KIT-13. Thereafter, a water maze test was carried out for 2 days (three trials per day).
The time required for the mice to reach an escape platform (arrival time) was as illustrated in FIG. 7. Intergroup comparison was carried out using the ANOVA test and the Bonferroni post-hoc test. […] Thus, KIT-13 is effective for improvement of the brain function (cognitive function).

CCCCC/C=C\C/C=C\C/C=C\C/C=C\CCCC(=O)O[C@H](COCCCCCCCCCCCCCCCCCC)COP(=O)(O)OCCN [KIT-13]
LPS-induced nuclear accumulation of p65 (p65 (NFkB) in BV2 cells): remarkably suppressed | LPS-induced expression of the inflammatory cytokine IL-1β (protein per 5000 cells) (IL-1β in BV2 cells): remarkably decreased | expression of the IL-1β gene (IL-1β gene in BV2 cells): significantly suppressed | survival rate vs control group (MeCP2-deficient mice [1]; FIG. 4): higher survival rate than the control group | number of days required for the survival rate to decrease to 50% (MeCP2-deficient mice [1]; n=14, control 64.5 days): 90 days | RTT-like score (MeCP2-deficient mice [2]): reduced the RTT-like score | toxicity (concluded from body weight) [3]: non-toxic | changes in the body weight vs control group ([3]; weekly measurement, t-test, FIG. 6): No statistical difference | memory (arrival time at escape platform) vs LPS group [4]: showed improvement in the memory
